Measured values: PMC6199744, “Development of Chemical Proteomics for the Folateome and Analysis of the Kinetoplastid Folateome” (ACS Infectious Diseases, 2018)
Read-outs that look alike come from different tables or passages of the source.

What was measured:
Format in all cases: binding
[1] = biological target: T1, HeLa cell extract proteins (Homo sapiens, UniProt P54136)
T1 construct: endogenous in cells; host or cells: HeLa cell extract
T1 sequence (P54136 1-660): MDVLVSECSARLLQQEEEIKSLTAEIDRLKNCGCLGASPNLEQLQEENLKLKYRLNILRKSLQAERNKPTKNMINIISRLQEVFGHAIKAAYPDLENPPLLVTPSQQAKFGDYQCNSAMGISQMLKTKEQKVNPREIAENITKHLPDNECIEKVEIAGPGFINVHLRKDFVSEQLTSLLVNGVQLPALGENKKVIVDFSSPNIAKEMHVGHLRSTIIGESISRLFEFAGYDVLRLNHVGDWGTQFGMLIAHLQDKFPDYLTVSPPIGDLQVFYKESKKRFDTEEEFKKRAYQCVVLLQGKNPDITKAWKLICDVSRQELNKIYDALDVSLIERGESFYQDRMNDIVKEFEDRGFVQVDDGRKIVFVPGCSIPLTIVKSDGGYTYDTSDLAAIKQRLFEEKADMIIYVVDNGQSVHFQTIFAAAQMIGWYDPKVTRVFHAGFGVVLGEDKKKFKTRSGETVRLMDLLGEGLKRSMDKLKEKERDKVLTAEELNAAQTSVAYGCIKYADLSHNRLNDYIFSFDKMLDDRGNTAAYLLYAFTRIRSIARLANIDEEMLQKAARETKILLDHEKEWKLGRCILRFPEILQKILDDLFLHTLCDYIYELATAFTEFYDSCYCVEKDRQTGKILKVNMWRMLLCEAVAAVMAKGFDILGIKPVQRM

[2] = biological target: T2, HeLa cell extract proteins (Homo sapiens, UniProt O00746)
T2 construct: endogenous in cells; host or cells: HeLa cell extract
T2 sequence (O00746 29-187): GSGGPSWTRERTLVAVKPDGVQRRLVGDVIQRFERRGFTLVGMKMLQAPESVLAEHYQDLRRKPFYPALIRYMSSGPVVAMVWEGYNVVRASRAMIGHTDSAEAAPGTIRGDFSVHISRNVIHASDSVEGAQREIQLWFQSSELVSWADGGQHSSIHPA

[3] = biological target: T3, HeLa cell extract proteins (Homo sapiens, UniProt P05165)
T3 construct: endogenous in cells; host or cells: HeLa cell extract
T3 sequence (P05165 53-728): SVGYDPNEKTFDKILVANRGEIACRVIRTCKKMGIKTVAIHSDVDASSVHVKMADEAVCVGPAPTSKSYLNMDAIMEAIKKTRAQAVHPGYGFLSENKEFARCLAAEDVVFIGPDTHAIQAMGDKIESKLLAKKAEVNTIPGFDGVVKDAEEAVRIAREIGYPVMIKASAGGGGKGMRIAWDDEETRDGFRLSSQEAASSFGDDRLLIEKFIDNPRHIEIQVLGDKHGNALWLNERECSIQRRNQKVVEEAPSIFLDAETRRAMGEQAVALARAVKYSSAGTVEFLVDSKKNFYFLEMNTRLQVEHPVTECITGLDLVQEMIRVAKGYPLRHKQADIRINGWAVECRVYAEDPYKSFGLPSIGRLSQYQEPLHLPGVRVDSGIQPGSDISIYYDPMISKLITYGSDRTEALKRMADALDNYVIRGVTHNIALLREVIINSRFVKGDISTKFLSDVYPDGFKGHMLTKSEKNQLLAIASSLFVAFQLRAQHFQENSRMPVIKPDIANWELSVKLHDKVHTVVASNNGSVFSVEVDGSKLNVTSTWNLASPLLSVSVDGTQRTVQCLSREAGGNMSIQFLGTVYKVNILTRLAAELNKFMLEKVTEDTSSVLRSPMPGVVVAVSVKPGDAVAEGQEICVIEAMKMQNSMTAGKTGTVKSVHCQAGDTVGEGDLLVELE

[4] = biological target: T4, HeLa cell extract proteins (Homo sapiens, UniProt Q02218)
T4 construct: endogenous in cells; host or cells: HeLa cell extract
T4 sequence (Q02218 41-1023): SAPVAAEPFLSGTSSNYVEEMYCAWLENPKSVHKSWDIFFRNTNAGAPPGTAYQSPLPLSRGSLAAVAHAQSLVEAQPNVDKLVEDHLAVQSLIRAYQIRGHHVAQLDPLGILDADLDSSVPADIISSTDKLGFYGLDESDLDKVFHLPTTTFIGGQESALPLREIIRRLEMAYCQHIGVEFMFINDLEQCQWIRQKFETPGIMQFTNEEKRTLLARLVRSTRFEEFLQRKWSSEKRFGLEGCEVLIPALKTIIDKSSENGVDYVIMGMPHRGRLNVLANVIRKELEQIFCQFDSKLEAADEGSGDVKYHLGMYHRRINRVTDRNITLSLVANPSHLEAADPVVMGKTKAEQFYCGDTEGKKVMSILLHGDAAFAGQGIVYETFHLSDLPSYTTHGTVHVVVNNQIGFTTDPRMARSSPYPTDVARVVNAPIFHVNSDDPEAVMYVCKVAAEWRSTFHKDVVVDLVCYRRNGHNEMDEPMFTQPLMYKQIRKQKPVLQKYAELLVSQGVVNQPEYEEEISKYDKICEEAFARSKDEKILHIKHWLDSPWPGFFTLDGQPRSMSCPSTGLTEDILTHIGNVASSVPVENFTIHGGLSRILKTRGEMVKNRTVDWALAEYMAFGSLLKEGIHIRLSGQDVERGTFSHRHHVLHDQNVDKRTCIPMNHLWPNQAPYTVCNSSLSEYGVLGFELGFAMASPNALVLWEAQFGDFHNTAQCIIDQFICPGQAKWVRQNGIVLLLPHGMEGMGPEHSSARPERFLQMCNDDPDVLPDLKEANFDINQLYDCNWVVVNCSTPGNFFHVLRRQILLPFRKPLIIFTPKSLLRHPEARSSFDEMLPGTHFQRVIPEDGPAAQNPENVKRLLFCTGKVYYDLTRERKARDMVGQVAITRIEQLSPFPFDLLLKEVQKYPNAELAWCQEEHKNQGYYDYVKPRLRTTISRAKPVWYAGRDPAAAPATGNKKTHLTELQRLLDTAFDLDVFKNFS

[5] = HeLa, protein PCCA (80 KDA PROTEIN)

SMILES	fold changes relative to vehicle control ([1]; HeLa, captured protein RARS)	fold changes relative to vehicle control ([2]; HeLa, protein NME4)	fold changes relative to vehicle control [3, 5]	fold changes relative to vehicle control ([4]; HeLa, captured protein OGDH)	fold changes relative to vehicle control ([1]; protein RARS, HeLa)	fold changes relative to vehicle control ([3]; captured protein PCCA, HeLa)	fold changes relative to vehicle control ([4]; protein OGDH, HeLa)	fold changes relative to vehicle control [1]	fold changes relative to vehicle control [2]	fold changes relative to vehicle control [3]	fold changes relative to vehicle control [4]
Nc1nc2c(c(=O)[nH]1)N(C=O)C(CNc1ccc(C(=O)N[C@@H](CCC(=O)O)C(=O)O)cc1)CN2 (stereo partly shown) [LEU, leucovorin]	0.97	1.04	1.07	1.13							
NCCCNc1ccc(C(=O)NC(CCC(=O)O)C(=O)O)cc1 (stereo not shown) [compound 7]	0.96	0.98	1.04	1.04							
CCCCCCOc1cccc(Cc2cnc(N)nc2N)c1 [compound 2]		0.92			1.19	0.99	1.26				
CCCCCCOc1ccc(Cc2cnc(N)nc2N)cc1 [compound 1]		0.97			0.9	1.07	1.05				
Nc1nc2cccc(-c3ccccc3)c2n1Cc1ccc(Cl)c(Cl)c1 [compound 3]		0.96			0.94	1.01	1.03				
NCCOCCOCC(=O)Nc1nc2ncc(CNc3ccc(C(=O)NC(CCC(=O)O)C(=O)O)cc3)nc2c(=O)[nH]1 (stereo not shown) [compound 6]	0.99	0.81	0.98	1.02							
Nc1nc2[nH]cc(CCc3ccc(C(=O)N[C@@H](CCC(=O)O)C(=O)O)cc3)c2c(=O)[nH]1 [PTX, pemetrexed]								0.93	0.81	0.21	0.9
